Assay results from publication PMC4033217, “Characterization of Novel PI3Kδ Inhibitors as Potential Therapeutics for SLE and Lupus Nephritis in Pre-Clinical Studies” (Frontiers in Immunology, 2014).

How the values were obtained:
BXSB mice = system: BXSB mice; design: method as in PMID 24445960; details: cited from earlier work
NZB/W F1 mice [1] = test: IFNα-accelerated NZB/W F1 mouse SLE model; type: in vivo
Experimental: (§1) All protocols and procedures were conducted according to German animal protection law (Tierschutzgesetz) and were approved by the local veterinarian authorities (Regierungspräsidium, Darmstadt, Germany). Ten-week-old female NZB/W F1 mice (Jackson Laboratories, Bar Harbor, ME, USA) were given a single i.v. injection of 1 × 10^8 IU/100 μl of AdV-IFN-α (adenovirus with mmIfna5_v1 insert, Biofocus, CoA.NL.09.160) in saline or left untreated (sham). Drug treatments were either initiated at 2 weeks (early intervention regimen) or 4 weeks (late intervention regimen) post AdV-IFN-α delivery until the end of the experiment (at 10 weeks). […] Serum and urine samples were collected for anti-dsDNA antibodies (by ELISA) and urinary protein creatinine ratio (UPCR) (measured by ADVIA 1800) determination, respectively, on the days indicated. Proteinuria is defined as UPCR >3.

NZB/W F1 mice [2] = test: Lymphocyte subsets in spleen at end of treatment, accelerated NZB/W F1 SLE model; type: in vivo, mouse; details: MMF 300 mg/kg once daily, early intervention
Experimental: as §1

CD69 on B220+ B cells = test: Ex vivo anti-IgD-induced CD69 up-regulation in the SLE model; design: species or system mouse; details: once daily for 2 weeks, 1 h after last dosing

| SMILES | Autoantibody production and kidney pathology (BXSB mice) | Protection against proteinuria (NZB/W F1 mice [1]; early intervention, MSC2360844 66 mg/kg or MMF 300 mg/kg once daily oral) | Serum anti-dsDNA IgG (NZB/W F1 mice [1]; early treatment, neither statistically significant nor dose-dependent) | No. of cells (×10^6) (mean ± SD): B220^+CD19^+ (total B cells) (NZB/W F1 mice [2]) | No. of cells (×10^6) (mean ± SD): CD3^+ (total T-cells) (NZB/W F1 mice [2]) | No. of cells (×10^6) (mean ± SD): CD138^+ (plasma cells) (NZB/W F1 mice [2]) | No. of cells (×10^6) (mean ± SD): GL-7^+IgG^− (GC B cells) (NZB/W F1 mice [2]) | No. of cells (×10^6) (mean ± SD): IgG^+ (class-switched B cells) (NZB/W F1 mice [2]) | No. of cells (×10^6) (mean ± SD): Total splenocytes (NZB/W F1 mice [2]) | No. of cells (×10^6) (mean ± SD): activated CD4^+ T-cells (NZB/W F1 mice [2]) | No. of cells (×10^6) (mean ± SD): activated CD8^+ T-cells (NZB/W F1 mice [2]) | Ex vivo anti-IgD-induced CD69 surface expression on B220+ B cells (CD69 on B220+ B cells) |
| --- | --- | --- | --- | --- | --- | --- | --- | --- | --- | --- | --- | --- |
| Cc1ccccc1-n1c(Cn2cnc3c(N)ncnc32)nc2cccc(C)c2c1=O [IC87114] | decreases autoantibody production and kidney pathology | – | – | – | – | – | – | – | – | – | – | – |
| COc1c(C)c2c(c(O)c1C/C=C(\C)CCC(=O)OCCN1CCOCC1)C(=O)OC2 [MMF, mycophenolate mofetil] | – | almost completely protected against proteinuria | tendency of serum anti-dsDNA IgG reduction | 20.65 (±6.54) ×10^6 | 21.05 (±6.83) ×10^6 | 0.43 (±0.28) ×10^6 | 0.23 (±0.16) ×10^6 | 0.17 (±0.05) ×10^6 | 46.50 (±25.17) ×10^6 | 5.24 (±2.05) ×10^6 | 0.23 (±0.09) ×10^6 | indistinguishable from untreated mice |
